From patent publication EP0268871A1, “Quinoline derivatives” (priority 1986, dated 1988)

target: acetylcholinesterase (Homo sapiens, UniProt P22303); assay: Determination of inhibitory activity against acetylcholinesterase (photometric method of Ellman et al.); assay type: biochemical; details: Relative ratio = IC50 (molar) of Tacrine / IC50 (molar) of test compound; IC50 = concentration of drug which inhibits 50% level of control
Description: Determination of inhibitory activity against acetylcholinesterase
The inhibitory activity against acetylchalinesterase of the compounds provided with the present invention was determined by the photometric methods described in Ellman et al., Biochemical Pharmacology, Vol. 7, p.

Chain of acetylcholinesterase (P22303 32-614): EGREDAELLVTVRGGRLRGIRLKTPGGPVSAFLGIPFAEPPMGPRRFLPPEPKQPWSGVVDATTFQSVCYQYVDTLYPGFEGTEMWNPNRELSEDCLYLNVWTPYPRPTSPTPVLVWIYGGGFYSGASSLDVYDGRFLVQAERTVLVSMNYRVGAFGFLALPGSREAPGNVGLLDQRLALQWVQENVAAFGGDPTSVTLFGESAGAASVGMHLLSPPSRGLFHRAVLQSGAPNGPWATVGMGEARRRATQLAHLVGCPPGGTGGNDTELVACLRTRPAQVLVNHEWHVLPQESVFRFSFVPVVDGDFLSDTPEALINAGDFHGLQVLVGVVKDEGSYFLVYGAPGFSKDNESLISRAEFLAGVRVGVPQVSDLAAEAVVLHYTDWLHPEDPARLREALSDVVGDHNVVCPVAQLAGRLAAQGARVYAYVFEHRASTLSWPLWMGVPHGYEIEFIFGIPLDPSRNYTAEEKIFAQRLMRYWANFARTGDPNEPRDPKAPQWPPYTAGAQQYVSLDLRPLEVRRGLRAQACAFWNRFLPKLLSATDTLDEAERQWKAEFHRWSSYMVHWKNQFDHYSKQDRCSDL

First: Nc1c2c(nc3cc(F)ccc13)CCCC2 [Example 2, 9-amino-6-fluoro-1,2,3,4-tetrahydroacridine]
Second: Nc1c2c(nc3cc(C(F)(F)F)ccc13)CCCC2 [compound 36]
The “Acetylcholinesterase Inhibition (reative ratio*)” value of the first is higher: 2.53 for the first, 1.15 for the second.

First: Nc1c2c(nc3cccc(F)c13)CCC2 [Example 6]
Second: Nc1c2c(nc3cccc(F)c13)CCCC2 [compound 157]
The “Acetylcholinesterase Inhibition (reative ratio*)” value of the first is lower: 1.75 for the first, 3.60 for the second.

Compared with Cc1cccc2nc3c(c(N)c12)CC(C)C3 (centres unmarked) [Example 14], Cc1cccc2nc3c(c(N)c12)CSCC3 [compound 112] is higher in “Acetylcholinesterase Inhibition (reative ratio*)” value: 1.27 for the first, 1.30 for the second.

Going from Nc1c2c(nc3cc(Cl)ccc13)C1C=CC2CC1 (centres unmarked) [Example 94] to Nc1c2c(nc3cccc(Cl)c13)CSCC2 [compound 149], the “Acetylcholinesterase Inhibition (reative ratio*)” value rises from 2.22 to 4.12.

First: Nc1c2c(nc3cc(F)c(F)cc13)CCCCC2 [compound 38]
Second: Nc1c2c(nc3c(F)cccc13)CCCCC2 [compound 156]
The “Acetylcholinesterase Inhibition (reative ratio*)” value of the first is lower: 2.04 for the first, 2.50 for the second.

In the case of Nc1c2c(nc3cccc(F)c13)CSCC2 [compound 118], the “Acetylcholinesterase Inhibition (reative ratio*)” value was 3.13.
